Test results published in patent US20080132544A1, “Peroxisome Proliferator-Activated Receptor Ligand” (KANEKA CORPORATION, priority 2004, published 2008).

How the values were obtained:
[1] = molecular target: T1, mouse PPARγ ligand-binding site (GAL4 chimeric protein, pM-mPPARγ) (Mus musculus, UniProt P37238); test: PPARγ ligand activity (GAL4-PPARγ chimera luciferase reporter assay in CV-1 cells); format: cell-based; conditions: for PPARγ ligand activity: specific activity relative to untreated control (DMSO = 1.00), CV-1 cells, 24 h
T1 construct: expressed in transfected cells; host or cells: CV-1 cells (African green monkey kidney)
T1 sequence (P37238 174-475 isoform P37238-2): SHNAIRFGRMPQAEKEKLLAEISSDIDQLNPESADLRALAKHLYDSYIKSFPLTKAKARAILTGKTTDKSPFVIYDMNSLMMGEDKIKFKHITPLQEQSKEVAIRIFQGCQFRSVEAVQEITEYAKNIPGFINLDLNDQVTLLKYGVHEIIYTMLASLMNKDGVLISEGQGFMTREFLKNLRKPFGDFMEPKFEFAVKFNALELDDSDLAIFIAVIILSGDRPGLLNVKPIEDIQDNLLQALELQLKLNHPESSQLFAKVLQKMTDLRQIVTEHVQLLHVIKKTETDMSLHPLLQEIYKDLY
Method: CV-1 cells (cultured cells derived from male African green monkey kidney) were seeded at 6×10^3 cells/well into a 96-well culture plate and cultured at 37° C. for 24 hours under 5% CO2 conditions. The medium used was DMEM (Dulbecco's Modified Eagle Medium; GIBCO) containing 10% FBS (fetal bovine serum), 10 ml/L penicillin/streptomycin solution (5000 IU/ml and 5000 μg/ml, respectively; GIBCO), and 37 mg/L ascorbic acid (Wako Pure Chemical Industries, Ltd.). The cells were washed with OPTI-MEM (GIBCO) and then transfected with pM-mPPARγ and 4×UASg-luc by use of Lipofectamine plus (GIBCO). […] The 4×UASg-luc is a reporter plasmid in which four copies of the upstream activating sequence of GAL4 (UASg) are incorporated upstream of a luciferase gene. Approximately 24 hours after transfection, the medium was replaced with a sample-containing medium (n=4), followed by culture for additional 24 hours. The sample dissolved in dimethyl sulfoxide (DMSO) or DMSO used as an untreated control was added at 1/1000 of the volume to the medium. The cells were washed with Ca- and Mg-containing phosphate-buffered saline (PBS+). Then, Luclite (Packard) was added thereto, and the luminescence intensity of luciferase was measured with a TopCount microplate scintillation/luminescence counter (Packard).
pM (plasmid from which PPARγ ligand-binding site gene was removed) was used as a control group instead of the pM-mPPARγ and subjected to measurement in the same way as for the measurement group. The ratio (measurement group/control group) of the average luminescence intensity values (n=4) between the measurement and control groups was calculated for each sample. Specific activity relative to the untreated control was used as the PPARγ ligand activity of the sample.

rats = test: Toxicity test on coumaperine, oral administration; format: in vivo; conditions: 2000 mg/kg of body weight
Method: A toxicity test was conducted on the coumaperine of the present invention.
Coumaperine was orally administered at 2000 mg/kg of body weight to rats. […] Thus, the coumaperine was confirmed to have no or exceedingly low toxicity.

For `O=C(/C=C/C=C/c1ccc(O)cc1)N1CCCCC1` [Coumaperine, N-5-(4-hydroxyphenyl)-2E,4E-pentadienoyl piperidine], the “PPARγ ligand activity, concentration dependence (in words)” value ([1]; 0.5 to 50 μg/ml, Table 1) was “concentration-dependent PPARγ ligand activity”, the PPARγ ligand activity ([1]; concentration added 0.5 μg/ml) was 1.05 and the PPARγ ligand activity ([1]; concentration added 1 μg/ml) was 1.07. The PPARγ ligand activity ([1]; concentration added 2 μg/ml) was 1.24, the PPARγ ligand activity ([1]; concentration added 5 μg/ml) was 1.78 and the PPARγ ligand activity ([1]; concentration added 10 μg/ml) was 2.07. It also gave a PPARγ ligand activity ([1]; concentration added 20 μg/ml) of 2.53, a PPARγ ligand activity ([1]; concentration added 30 μg/ml) of 2.38 and a PPARγ ligand activity ([1]; concentration added 50 μg/ml) of 2.44. For the same molecule, the death cases (rats) was “no death case was observed” and the toxic conditions (rats) was “toxic conditions were not particularly observed”.
